Experimental data: DBAASP
Converted amounts (≈) assume the structure as drawn.

Legend:
Test in all cases: ≥ marks a high value that may be exact or a test limit, other limits are often not marked, values filed in µg/mL are converted to µM
[1] = test system: Candida albicans ATCC 2002
[2] = test system: Escherichia coli ATCC 25922
[3] = test system: Pseudomonas aeruginosa CMCCB 10104
[4] = test system: Staphylococcus aureus ATCC 25923
Escherichia coli JW0013 = test system: Escherichia coli JW0013
Escherichia coli UB1005 = test system: Escherichia coli UB1005
[5] = test system: Pseudomonas aeruginosa PAO1

Row | SMILES | MIC [1] | MIC [2] | MIC [3] | MIC [4] | MIC (Escherichia coli JW0013) | MIC (Escherichia coli UB1005) | MIC [5]
1 | CC[C@H](C)[C@H](NC(=O)CN)C(=O)N[C@@H](CC(C)C)C(=O)NCC(=O)N[C@@H](CC(N)=O)C(=O)N[C@H](C(=O)N[C@H](C(=O)NCC(=O)N[C@@H](CCSC)C(=O)NCC(=O)N[C@@H](CCCCN)C(=O)N[C@@H](CCC(N)=O)C(=O)N[C@H](C(=O)N[C@H](C(=O)N[C@H]1CSSC[C@@H](C(=O)O)NC(=O)[C@H](CC(C)C)NC(=O)CNC(=O)[C@H](CO)NC(=O)[C@H](CC(C)C)NC(=O)CNC1=O)C(C)C)C(C)C)C(C)C)[C@@H](C)CC [GILGNIVGMGKQVVCGLSGLC] | 2.53 µM (≈ 5.1 µg/mL) | 2.53 µM (≈ 5.1 µg/mL) | 5.05 µM (≈ 10.2 µg/mL) | 2.53 µM (≈ 5.1 µg/mL) | – | – | –
2 | CC[C@H](C)[C@H](NC(=O)CNC(=O)[C@H](CO)NC(=O)[C@H](CC(C)C)NC(=O)[C@@H](NC(=O)CN)[C@@H](C)CC)C(=O)N[C@@H](CC(C)C)C(=O)NCC(=O)N[C@H](C(=O)NCC(=O)N[C@@H](CCCCN)C(=O)N[C@@H](CCCCN)C(=O)N[C@@H](CC(C)C)C(=O)N[C@H](C(=O)N[C@H]1CSSC[C@@H](C(=O)O)NC(=O)[C@H](CC(C)C)NC(=O)CNC(=O)[C@H](CO)NC(=O)[C@H](CC(C)C)NC(=O)CNC1=O)C(C)C)C(C)C [GILSGILGVGKKLVCGLSGLC] | 5.79 µM (≈ 11.5 µg/mL) | 5.79 µM (≈ 11.5 µg/mL) | 11.6 µM (≈ 23 µg/mL) | 2.92 µM (≈ 5.79 µg/mL) | – | – | –
3 | CC[C@H](C)[C@H](NC(=O)CNC(=O)[C@H](CCCCN)NC(=O)CNC(=O)[C@H](C)NC(=O)[C@H](Cc1ccccc1)NC(=O)[C@H](CCCCN)NC(=O)[C@H](CO)NC(=O)[C@H](Cc1ccccc1)NC(=O)[C@H](CC(C)C)NC(=O)CN)C(=O)N[C@@H](CCCCN)C(=O)N[C@@H](CC(N)=O)C(=O)N[C@@H](Cc1ccccc1)C(=O)N[C@@H](CC(C)C)C(=O)N[C@H](C(=O)N[C@@H](CCCCN)C(=O)NCC(=O)N[C@H](C(=O)N[C@@H](CCCCN)C(=O)N[C@@H](Cc1cnc[nH]1)C(=O)N[C@H](C(=O)NCC(=O)N[C@@H](CCCCN)C(=O)N[C@@H](CCC(=O)O)C(=O)N[C@H](C(=O)NCC(=O)N[C@@H](CCSC)C(=O)N[C@@H](CC(=O)O)C(=O)N[C@H](C(=O)N[C@H](C(=O)N[C@@H](CCCN=C(N)N)C(=O)N[C@H](C(=O)NCC(=O)N[C@H](C(=O)N[C@@H](CC(=O)O)C(=O)N[C@H](C(=O)N[C@@H](C)C(=O)NCC(=O)N[C@H]1CSSC[C@@H](C(=O)O)NC(=O)[C@H](CCC(=O)O)NC(=O)CNC(=O)[C@H](CCCCN)NC(=O)[C@H]([C@@H](C)CC)NC(=O)[C@H](CCCCN)NC1=O)C(C)C)[C@@H](C)CC)[C@@H](C)O)[C@@H](C)CC)C(C)C)C(C)C)[C@@H](C)CC)C(C)C)[C@@H](C)CC [GLFSKFAGKGIKNFLIKGVKHIGKEVGMDVIRTGIDVAGCKIKGEC] | 0.349 µM (≈ 1.7 µg/mL) | 0.699 µM (≈ 3.4 µg/mL) | 0.699 µM (≈ 3.4 µg/mL) | 0.349 µM (≈ 1.7 µg/mL) | – | – | –
4 | CC[C@H](C)[C@H](NC(=O)[C@@H](NC(=O)[C@H](CC(=O)O)NC(=O)[C@H](CC(C)C)NC(=O)[C@H](CC(C)C)NC(=O)CN)[C@@H](C)O)C(=O)N[C@@H](CCCCN)C(=O)N[C@@H](CC(N)=O)C(=O)N[C@@H](CCSC)C(=O)N[C@@H](C)C(=O)N[C@@H](CC(C)C)C(=O)N[C@@H](CC(N)=O)C(=O)N[C@@H](C)C(=O)N[C@@H](C)C(=O)N[C@@H](CCCCN)C(=O)N[C@@H](CO)C(=O)N[C@@H](C)C(=O)NCC(=O)N[C@H](C(=O)N[C@@H](CO)C(=O)N[C@H](C(=O)N[C@@H](CC(C)C)C(=O)N[C@@H](CC(N)=O)C(=O)N[C@@H](CO)C(=O)N[C@@H](CC(C)C)C(=O)N[C@@H](CO)C(=O)N[C@H]1CSSC[C@@H](C(=O)O)NC(=O)[C@H]([C@@H](C)O)NC(=O)[C@H](CCCCN)NC(=O)[C@H](CO)NC(=O)[C@H](CC(=O)O)NC(=O)[C@H](CCCCN)NC1=O)C(C)C)C(C)C [GLLDTIKNMALNAAKSAGVSVLNSLSCKDSKTC] | 3.46 µM (≈ 11.6 µg/mL) | 1.73 µM (≈ 5.8 µg/mL) | 3.46 µM (≈ 11.6 µg/mL) | 1.73 µM (≈ 5.8 µg/mL) | – | – | –
5 | CC[C@H](C)[C@H](NC(=O)[C@H](CCCN=C(N)N)NC(=O)[C@H](CCCN=C(N)N)NC(=O)[C@@H]1CCCN1C(=O)[C@@H]1CCCN1C(=O)[C@H](CCCN=C(N)N)NC(=O)[C@H](Cc1ccccc1)NC(=O)[C@H](CCCN=C(N)N)NC(=O)[C@@H]1CCCN1C(=O)[C@H](CC(C)C)NC(=O)[C@H](Cc1ccc(O)cc1)NC(=O)[C@@H]1CCCN1C(=O)[C@@H]1CCCN1C(=O)[C@H](CCCCN)NC(=O)[C@H](CC(=O)O)NC(=O)[C@@H](N)C(C)C)C(=O)N[C@@H](Cc1ccc(O)cc1)C(=O)N[C@@H](CC(N)=O)C(=O)N[C@@H](CCCN=C(N)N)C(N)=O [VDKPPYLPRFRPPRRIYNR] | – | – | – | – | 1.97 µM (≈ 4.8 µg/mL) | – | –
6 | CC[C@H](C)[C@H](NC(=O)[C@H](CCCN=C(N)N)NC(=O)[C@H](CCCN=C(N)N)NC(=O)[C@@H]1CCCN1C(=O)[C@@H]1CCCN1C(=O)[C@H](CCCN=C(N)N)NC(=O)[C@H](CCCCN)NC(=O)[C@H](CCCN=C(N)N)NC(=O)[C@@H]1CCCN1C(=O)[C@H](CCCN=C(N)N)NC(=O)[C@H](Cc1ccc(O)cc1)NC(=O)[C@@H]1CCCN1C(=O)[C@H](CCCN=C(N)N)NC(=O)[C@H](CCCCN)NC(=O)[C@H](CC(=O)O)NC(=O)[C@@H](N)C(C)C)C(=O)N[C@@H](Cc1ccc(O)cc1)C(=O)N[C@@H](CC(N)=O)C(=O)N[C@@H](CCCN=C(N)N)C(N)=O [VDKRPYRPRKRPPRRIYNR] | – | – | – | – | 0.951 µM (≈ 2.4 µg/mL) | – | –
7 | CC[C@H](C)[C@H](NC(=O)[C@H](CCCN=C(N)N)NC(=O)[C@H](CCCN=C(N)N)NC(=O)[C@@H]1CCCN1C(=O)[C@@H]1CCCN1C(=O)[C@H](CCCN=C(N)N)NC(=O)[C@@H]1CCCN1C(=O)[C@H](CCCN=C(N)N)NC(=O)[C@@H]1CCCN1C(=O)[C@H](CC(C)C)NC(=O)[C@H](Cc1ccc(O)cc1)NC(=O)[C@@H]1CCCN1C(=O)[C@@H]1CCCN1C(=O)[C@H](CCCCN)NC(=O)[C@H](CC(N)=O)NC(=O)[C@@H](N)C(C)C)C(=O)N[C@@H](Cc1ccc(O)cc1)C(=O)N[C@@H](CC(N)=O)C(=O)N[C@@H](CCCN=C(N)N)C(N)=O [VNKPPYLPRPRPPRRIYNR] | – | – | – | – | 2.01 µM (≈ 4.8 µg/mL) | – | –
8 | CC[C@H](C)[C@H](NC(=O)[C@H](CCCN=C(N)N)NC(=O)[C@H](CCCN=C(N)N)NC(=O)[C@@H]1CCCN1C(=O)[C@@H]1CCCN1C(=O)[C@H](CCCN=C(N)N)NC(=O)[C@@H]1CCCN1C(=O)[C@H](CCCN=C(N)N)NC(=O)[C@@H]1CCCN1C(=O)[C@H](CC(C)C)NC(=O)[C@H](Cc1ccc(O)cc1)NC(=O)[C@@H]1CCCN1C(=O)[C@@H]1CCCN1C(=O)[C@H](CCCCN)NC(=O)[C@H](CCCN=C(N)N)NC(=O)[C@@H](N)C(C)C)C(=O)N[C@@H](Cc1ccc(O)cc1)C(=O)N[C@@H](CC(N)=O)C(=O)N[C@@H](CCCN=C(N)N)C(N)=O [VRKPPYLPRPRPPRRIYNR] | – | – | – | 1.64 µM (≈ 4 µg/mL) | 1.36 µM (≈ 3.3 µg/mL) | 0.247 µM (≈ 0.6 µg/mL) | 26.3 µM (≈ 64 µg/mL)
